In one experiment the target is T1, human MCHR1 (Homo sapiens, UniProt Q99705).
T1 construct: The full-length cDNA for human MCHR1 was cloned from a human adult brain cDNA library; expressed in transfected cells; host or cells: AV12 cells previously transfected with Galpha15
Briefly: 125I-MCH competitive binding assay with clone 43 membranes. The conditions noted are these: Ki from IC50 by Cheng-Prusoff. Here is the method:
The full-length cDNA for human MCHR1 was cloned from a human adult brain cDNA library (Edge Biosystems, Cat. 38356) by standard polymerase chain reaction (PCR) methodology employing the following primers: sense, 5′-GCCACCATGGACCT GGAAGCCTCGCTGC-3′; anti-sense, 5′-[…]-3′. The PCR reaction was performed in a final volume of 50 μl containing 5 μl of a 10× stock solution of PCR buffer, 1 μl of 10 mM dNTP mixture (200 μM final), 2 μl of 50 mM Mg(SO4) (2 mM final), 0.5 μl of 20 μM solutions of each primer (0.2 μM final), 5 μl of template cDNA containing 0.5 ng DNA, 0.5 μl of Platinum Taq High Fidelity DNA polymerase (Gibco Life Technologies) and […] of H2O. PCR amplification was performed on a Perkin Elmer 9600 thermocycler. After denaturation for 90 sec at 94° C., the amplification sequence consisting of 94° C. for 25 sec, 55° C. for 25 sec and 72° C. for 2 min was repeated 30 times, followed by a final elongation step at 72° C. for 10 min. The desired PCR product (1.1 Kb) was confirmed by agarose gel electrophoresis and the band was extracted from the gel by Geneclean (Bio101) following the manufacturer's instructions. Following extraction, the cDNA fragment was cloned into pCR2.1-TOPO plasmid (Invitrogen Corp) to confirm the identity and sequence.
In order to generate cell lines stably expressing MCHR1, the insert was then subcloned into the Xba I and Not I sites of pcDNA(+)-3.1-neomycin (Invitrogen). After purification by Qiagen Maxi-prep kit (QIAGEN, Inc.), the plasmid was transfected by Fugene 6 (Roche Applied Science) into AV12 cells that had been previously transfected with the promiscuous G protein Gα15. The transfected cells were selected by G418 (800 μg/ml) for 10-14 days and single colonies were isolated from culture plates. The G418-resistant colonies were further selected for MCHR1 expression by measuring MCH-stimulated Ca^2+ transients with a fluorometric imaging plate reader (FLIPR, Molecular Devices).
Both the ^125I-MCH binding and functional GTPγ^35S binding assays employed membranes isolated from a clone designated as clone 43. Typically, cells from 20 confluent T225 flasks were processed by washing the monolayers in cold phosphate-buffered saline (PBS), scraping the cells into same and re-suspending the cell pellet in 35 ml of 250 mM Sucrose, 50 mM HEPES, pH 7.5, 1 mM MgCl2, 24 μg/ml DNase I, and protease inhibitors (1 Complete® tablet, per 50 ml of buffer prepared, Roche Diagnostics). […]
Binding of compounds to MCHR1 was assessed in a competitive binding assay employing ^125I-MCH, compound and clone 43 membranes. […] Non-specific binding is assessed in the presence of 0.1 μM unlabeled MCH. Bound ^125I-MCH is determined by placing sealed plates in a Microbeta Trilux (Perkin Elmer Life and Analytical Sciences Inc) and counting after a 12 hr delay. […]

The subject of experiment [1] is diet-induced obese male Long-Evans rats. The experiment is described as follows: 3 day body weight change in diet-induced obese rats after oral dosing. The following applies: 10 mg/kg oral once a day for 3 days, 3 day cumulative, relative to vehicle control. It is filed as in vivo, rat. The protocol:
Vehicle consisted of 1% CMC and 0.25% PS-80 in water.
Animals were individually housed in a temperature regulated room (24° C.) with a reverse 12 hour light/dark cycle (dark 10:00/22:00). Water and food (Teklad 95217, Harlan, Wis.) were available ad libitum. Compounds were dosed orally once a day before onset of dark for 3 days. Daily food intake and body weight change were measured for the 3 day period.

As usually defined, the Ki is the dissociation constant of the complex between target and ligand, obtained from inhibition or displacement.

Read-outs that look alike come from different tables or passages of the source.

T1 sequence (Q99705 whole entry): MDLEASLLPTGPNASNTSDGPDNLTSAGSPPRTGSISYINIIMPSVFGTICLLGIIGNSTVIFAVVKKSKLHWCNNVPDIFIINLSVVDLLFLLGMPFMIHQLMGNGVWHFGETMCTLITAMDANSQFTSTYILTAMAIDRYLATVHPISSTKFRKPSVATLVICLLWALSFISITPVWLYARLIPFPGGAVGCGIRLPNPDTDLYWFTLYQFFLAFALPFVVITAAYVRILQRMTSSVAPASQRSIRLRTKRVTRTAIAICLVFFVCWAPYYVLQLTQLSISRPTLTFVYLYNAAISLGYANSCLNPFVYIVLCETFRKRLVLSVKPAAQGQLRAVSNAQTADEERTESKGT

Turning to `CN1CCC(N(C)c2nc3cc(NC(=O)c4ccc(-c5ccc(F)cc5Cl)cc4)ccc3o2)CC1.Cl` [Example 157, 2′-Chloro-4′-fluoro-biphenyl-4-carboxylic acid {2-[methyl-(1-methyl-piperidinyl)-amino]-benzooxazol-5-yl}-amide Hydrochloride], the Ki on human MCHR1 (Average MCHR1 Ki (nM)) was determined as 7.5 nM. Besides, the “Body weight reduction @ 10 mg/Kg versus vehicle control. Data expressed in grams.” value in experiment [1] was determined as 18 grams.

As for `CN1CCC(CN(C)c2nc3cc(NC(=O)c4ccc(-c5ccc(F)cc5)cc4)ccc3o2)C1` (single isomer, unassigned) [Example 34, 4′-Fluoro-biphenyl-4-carboxylic acid {2-[methyl-(1-methyl-pyrrolidin-3-ylmethyl)-amino]-benzooxazol-5-yl}-amide], the Ki on human MCHR1 (read-out: Average MCHR1 Ki) amounted to 8.79 nM. In experiment [1], the “Body weight reduction @ 10 mg/Kg versus vehicle control. Data expressed in grams.” value was determined as 5.8 grams.

As for `CN1CCC(N(C)c2nc3ccc(NC(=O)c4ccc(-c5ccc(F)cc5)cc4)cc3s2)C1` (single isomer, unassigned) [Example 107, 4′-Fluoro-biphenyl-4-carboxylic Acid {2-[methyl-(1-methyl-pyrrolidin-3-yl)-amino]-benzothiazol-6-yl}-amide], the Ki on human MCHR1 (read-out: Average MCHR1 Ki) was determined as 15.3 nM. In experiment [1], the “Body weight reduction @ 10 mg/Kg versus vehicle control. Data expressed in grams.” value was 7.1 grams.

Consider `CN1CCC(N(C)c2nc3ccc(NC(=O)c4ccc(-c5ccc(F)cc5)cc4)cc3s2)C1` (single isomer, unassigned) [Example 106, 4′-Fluoro-biphenyl-4-carboxylic Acid {2-[methyl-(1-methyl-pyrrolidin-3-yl)-amino]-benzothiazol-6-yl}-amide], for which the inhibition constant Ki on human MCHR1 (read-out: Average MCHR1 Ki) came to 16.7 nM. In addition, the “Body weight reduction @ 10 mg/Kg versus vehicle control. Data expressed in grams.” value in experiment [1] came to 8.4 grams.
